Measured values published in patent publication US7932290B2, “Method for the treatment of metabolic disorders” (Wellstat Biologics Corporation, priority 2003, dated 2011).

What was measured:
Experiment in all cases: Transcription activation potential, GAL4 luciferase reporter in C3A cells
Assay type in all cases: cell-based
[1] = target: T1, Human PPARα LBD fusion protein (Homo sapiens, UniProt Q07869)
T1 construct: a.a; 167-468)
T1 sequence (Q07869 167-468): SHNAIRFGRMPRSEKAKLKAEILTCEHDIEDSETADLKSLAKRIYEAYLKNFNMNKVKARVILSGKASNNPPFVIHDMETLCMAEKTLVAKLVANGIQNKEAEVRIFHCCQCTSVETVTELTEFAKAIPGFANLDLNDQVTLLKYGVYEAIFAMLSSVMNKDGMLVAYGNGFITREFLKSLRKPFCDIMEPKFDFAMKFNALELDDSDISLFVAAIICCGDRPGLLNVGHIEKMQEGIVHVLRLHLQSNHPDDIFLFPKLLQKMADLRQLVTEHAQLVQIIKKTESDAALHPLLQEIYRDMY

[2] = target: T2, Mouse PPARα LBD fusion protein (Mus musculus, UniProt P23204)
T2 sequence (P23204 239-466): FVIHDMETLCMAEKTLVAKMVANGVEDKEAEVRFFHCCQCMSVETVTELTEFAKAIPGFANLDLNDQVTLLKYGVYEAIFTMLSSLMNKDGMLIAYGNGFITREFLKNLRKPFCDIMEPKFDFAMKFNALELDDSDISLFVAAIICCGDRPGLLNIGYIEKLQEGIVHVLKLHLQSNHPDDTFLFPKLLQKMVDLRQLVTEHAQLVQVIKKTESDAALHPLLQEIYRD

[3] = tested on: Human PPARγ LBD fusion protein
[4] = target: T3, Mouse PPARγ LBD fusion protein (Mus musculus, UniProt P37238)
T3 sequence (P37238 238-503): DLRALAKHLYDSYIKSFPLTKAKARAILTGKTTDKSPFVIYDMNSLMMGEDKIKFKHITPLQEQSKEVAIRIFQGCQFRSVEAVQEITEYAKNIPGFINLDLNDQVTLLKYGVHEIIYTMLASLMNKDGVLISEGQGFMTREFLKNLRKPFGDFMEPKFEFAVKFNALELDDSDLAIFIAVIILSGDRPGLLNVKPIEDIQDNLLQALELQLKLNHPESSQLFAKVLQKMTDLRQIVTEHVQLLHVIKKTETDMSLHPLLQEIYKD

For Cc1cccc(C)c1COc1cccc(C(=O)O)c1 [Compound CG, 3-(2,6-Dimethylbenzyloxy)benzoic acid], the “transcription activation potential (luciferase) ± standard deviation” value ([1]; 1 μM) was 10.9 ± 11.6 LCPS, the “transcription activation potential (luciferase) ± standard deviation” value ([1]; 3 μM) was 19.1 ± 6.1 LCPS and the “transcription activation potential (luciferase) ± standard deviation” value ([1]; 10 μM) was 17.9 ± 5.2 LCPS. The “transcription activation potential (luciferase) ± standard deviation” value ([1]; 30 μM) was 38.2 ± 21.1 LCPS, the “transcription activation potential (luciferase) ± standard deviation” value ([1]; 100 μM) was 23.9 ± 5.3 LCPS and the “transcription activation potential (luciferase) ± standard deviation” value ([1]; 200 μM) was 159.4 ± 29.6 LCPS. For the same compound, the “transcription activation potential (luciferase) ± standard deviation” value ([2]; 1 μM, Table 20a) was 4.43 ± 2.25 LCPS, the “transcription activation potential (luciferase) ± standard deviation” value ([2]; 1 μM, Table 21a) was 361 ± 398 RLU and the “transcription activation potential (luciferase) ± standard deviation” value ([2]; 3 μM, Table 20a) was 9.17 ± 3.72 LCPS. The “transcription activation potential (luciferase) ± standard deviation” value ([2]; 3 μM, Table 21a) was 706 ± 399 RLU, the “transcription activation potential (luciferase) ± standard deviation” value ([2]; 5 μM, Table 21a) was 492 ± 160 RLU and the “transcription activation potential (luciferase) ± standard deviation” value ([2]; 7 μM, Table 21a) was 652 ± 190 RLU. The “transcription activation potential (luciferase) ± standard deviation” value ([2]; 10 μM, Table 20a) was 7.87 ± 0.7 LCPS, the “transcription activation potential (luciferase) ± standard deviation” value ([2]; 10 μM, Table 21a) was 394 ± 84 RLU and the “transcription activation potential (luciferase) ± standard deviation” value ([2]; 30 μM, Table 20a) was 11.63 ± 5.01 LCPS. For the same compound, the “transcription activation potential (luciferase) ± standard deviation” value ([2]; 30 μM, Table 21a) was 651 ± 643 RLU, the “transcription activation potential (luciferase) ± standard deviation” value ([2]; 100 μM, Table 20a) was 11.8 ± 8.95 LCPS and the “transcription activation potential (luciferase) ± standard deviation” value ([2]; 100 μM, Table 21a) was 926 ± 1362 RLU. For the same compound, the “transcription activation potential (luciferase) ± standard deviation” value ([2]; 200 μM, Table 20a) was 80.3 ± 2 LCPS, the “transcription activation potential (luciferase) ± standard deviation” value ([3]; 1 μM test compound) was 47.9 ± 7.2 LCPS and the “transcription activation potential (luciferase) ± standard deviation” value ([3]; 3 μM test compound) was 73.6 ± 39.1 LCPS. The “transcription activation potential (luciferase) ± standard deviation” value ([3]; 10 μM test compound) was 72.5 ± 28.2 LCPS, the “transcription activation potential (luciferase) ± standard deviation” value ([3]; 30 μM test compound) was 205.6 ± 37.1 LCPS and the “transcription activation potential (luciferase) ± standard deviation” value ([3]; 100 μM test compound) was 403.6 ± 86.1 LCPS. The “transcription activation potential (luciferase) ± standard deviation” value ([3]; 200 μM test compound) was 598.1 ± 190.4 LCPS, the “transcription activation potential (luciferase) ± standard deviation” value ([4]; 1 μM test compound, Table 20b) was 8.47 ± 5.01 LCPS and the “transcription activation potential (luciferase) ± standard deviation” value ([4]; 1 μM, Table 21b) was 634 ± 195 RLU. For the same compound, the “transcription activation potential (luciferase) ± standard deviation” value ([4]; 3 μM test compound, Table 20b) was 14.8 ± 4.3 LCPS, the “transcription activation potential (luciferase) ± standard deviation” value ([4]; 10 μM test compound, Table 20b) was 20.87 ± 4.1 LCPS and the “transcription activation potential (luciferase) ± standard deviation” value ([4]; 10 μM, Table 21b) was 405 ± 318 RLU. For the same compound, the “transcription activation potential (luciferase) ± standard deviation” value ([4]; 30 μM test compound, Table 20b) was 55.4 ± 30.6 LCPS, the “transcription activation potential (luciferase) ± standard deviation” value ([4]; 30 μM, Table 21b) was 1562 ± 354 RLU and the “transcription activation potential (luciferase) ± standard deviation” value ([4]; 100 μM test compound, Table 20b) was 78.8 ± 23.1 LCPS. The “transcription activation potential (luciferase) ± standard deviation” value ([4]; 100 μM, Table 21b) was 2555 ± 1609 RLU and the “transcription activation potential (luciferase) ± standard deviation” value ([4]; 200 μM test compound, Table 20b) was 101.2 ± 59.1 LCPS.
